What was measured:
Type in all cases: in vivo
[1] = test system: Streptococcus pneumoniae serotype 3; assay: Opsonophagocytosis assay of serum of immunized mice, serotype 3; settings: PCV13 plus QS-21 vs PCV13 plus VSA-1
Protocol: (§1) BALB/c mice used in this study were purchased from the Jackson Laboratory and maintained within an environmentally controlled, pathogen-free animal facility at the University of Alabama at Birmingham (UAB). Each human dose of PCV13 (trade name Prevnar 13 by Pfizer) is available in 0.5 mL single-dose pre-filled syringes. Groups of female BALB/c mice (8-10 weeks of age, six per group) were immunized via the subcutaneous route (s.c.) with saline, PCV 13 (50 μL), PCV13 (50 μL) plus QS-21 (20 μg), or PCV13 (50 μL) plus VSA-1 (100 μg) on days 0, 14 and 28. Serum samples were collected prior to the first immunization and at 2 weeks following the last immunization. Equal volumes of the six sera in each group were pooled together to create serum pools for each group. The serum was obtained after centrifugation and stored at −20° C. until assayed. All studies were performed according to National Institutes of Health guidelines, and protocols were approved by the UAB Institutional Animal Care and Use Committee.
(§2) Opsonophagocytosis assay for serotypes 3, 4, 6B, 9V, 14, 19A, and 19F was performed using a 4-fold multiplexed opsonization assay described in the literature. […] Opsonic indices were determined as the interpolated serum dilution that kills 50% of bacteria. […]

[2] = test system: Streptococcus pneumoniae serotype 9V; assay: Opsonophagocytosis assay of serum of immunized mice, serotype 9V; settings: PCV13 plus QS-21 vs PCV13 plus VSA-1
Protocol: as §1, §2

[3] = test system: Streptococcus pneumoniae serotype 14; assay: Opsonophagocytosis assay of serum of immunized mice, serotype 14; settings: adjuvant added to PCV13 vs PCV13 alone; BALB/c mice
Protocol: as §1, §2

[4] = test system: Streptococcus pneumoniae serotype 19F; assay: Opsonophagocytosis assay of serum of immunized mice, serotype 19F; settings: PCV13 plus QS-21 vs PCV13 plus VSA-1
Protocol: as §1, §2

[5] = test system: Streptococcus pneumoniae seven serotypes (3, 4, 6B, 9V, 14, 19A and 19F); assay: IgG subclass pneumococcal antibody ELISA, seven serotypes together (average, summary); settings: adjuvant added to PCV13; BALB/c mice
Protocol: Four groups of female BALB/c mice (6 per group) were immunized with normal saline, one tenth human dose of PCV13, PCV13+VSA-1, and PCV13-QS21 on days 0, 14 […]. QS21 is another saponin adjuvant. Blood samples were obtained on day 42. IgG subclass of pneumococcal antibodies in the pooled serum samples of each group were determined with pneumococcal antibody ELISA for seven serotypes (3, 4, 6B, 9V, 14, 19A and 19F) using enzyme-conjugated antibodies against mouse IgG1, IgG2a or IgG3.

[6] = test system: Streptococcus pneumoniae serotypes 3, 4, 6B, 9V, 14, 19A, and 19F; assay: Opsonophagocytosis assay, several serotypes together; settings: adjuvant added to PCV13 vs PCV13 alone, BALB/c mice
Protocol: as §1, §2

Substance: QS-21
- opsonic titer, QS-21 superior to VSA-1, serotype 3 [1]: 1.3 fold
- opsonic titer, QS-21 superior to VSA-1, serotype 9V [2]: 2.4 fold
- increase of PCV13-induced opsonic titers, serotype 14 [3]: 14.9 fold
- opsonic titer, QS-21 superior to VSA-1, serotype 19F [4]: 1.2 fold
- IgG1, IgG2a and IgG3 antibodies titers against seven selected serotypes [5]: boosted
- increase of PCV13-induced opsonic titers [6]: 1.9-4.9 fold
